Data as given in US20040072746A1, “Inhibitors of monocarboxylate transport” (priority 2001, published 2004).
pIC50: −log10 of the molar value. Like-named read-outs stand apart in the source and are kept apart here.

Tests used:
[1] = test system: Splenic B-lymphocytes; experiment: Inhibition of B-lymphocyte proliferation; type: cell-based, Balb/c mice; settings: 48 hours
Protocol: Splenic B-lymphocytes were obtained from Balb/c mice by disruption of the spleen through a nylon sieve. The resultant cellular suspension was washed three times by centrifugation. The spleen cells were then plated out in flat-bottomed 96 well microtitre plates at a concentration of 2-4×10^5 cells per well. B-lymphocyte stimulators were added with or without compound. Stimulators employed were lipopolysaccharide (LPS) at 50 μg/ml, 8-mercaptoguanosine (8MG) at 100 μg/ml, or goat anti mouse IgM at 40 μg/ml. […] The cultures were incubated for 48 hours at 37° C. and pulsed with tritiated thymidine for the final 6 hours. The cells were harvested as described previously and thymidine uptake used as a measure of DNA synthesis.

[2] = test system: activated T-lymphocytes; experiment: Extracellular lactate levels in activated T-lymphocytes (lactate oxidase); type: cell-based, human; settings: Homo sapiens, T-lymphocyte; Mean±s.e.mean (mean±range for n=2); read-out: pIA50 Extracellular Lactate (converted)
Protocol: (§1) PBMCs were prepared as described above by separation over Lymphoprep and T-lymphocytes were then enriched by purification on a nylon wool column. Briefly, 0.6 g nylon wool was inserted into a 10 ml syringe and this was autoclaved. […] The PBMC were resuspended in 1 ml of pre-warmed RPMI (20% HS) and were loaded onto the nylon wool column. The column was incubated for 45 min at 37° C. followed by elution of the T-cells by adding 10 ml RPMI (20% HS) (prewarmed to 37° C.) dropwise to the column. The T-cells obtained from the elution of the column were centrifuged (850 g for 5 min) and resuspended in RPMI containing L-glutamine and 5% human serum and stimulated with 0.5 ng/ml PMA and 500 ng/ml lonomycin for 48 h.
20 μl of each concentration were added to triplicate wells of a 96-well plate. T-cells were then added (200 μl per well, 2×10^5 cells) and were cultured for 4 h under standard cell culture conditions. The cell supernatants were collected from each well after the cells were pelleted by centrifugation of the plate at 850 g for 5 min at 4° C. 10 μl of each supernatant sample were used for the lactate determination.
(§2) The assay was carried out in 96-well plates at room temperature. 10 μl of standard or sample were added to each well followed by 200 μl of the Lactate Reagent. […] The data were collected and analysed using SOFTmax PRO software (Molecular Devices).

[3] = test system: activated T-lymphocytes; experiment: Intracellular lactate levels in activated T-lymphocytes (lactate oxidase); type: cell-based; settings: Homo sapiens, T-lymphocyte; Mean±s.e.mean (mean±range for n=2); read-out: pIA50 Intracellular Lactate (converted)
Protocol: as §1
100 μl of each concentration were added to triplicate wells of a 24-well plate. T-cells were then added (1 ml per well) and were cultured for 4 h under standard cell culture conditions. The cells were then transferred from each well to microfuge tubes and were centrifuged at 360 g for 5 min at 4° C. The supernatant was discarded and the cell pellet was resuspended in 1 ml of ice-cold PBS, pH5.0. The cells were washed twice in PBS by centrifugation (360 g, 5 min, 4° C.) followed by resuspension of the cell pellet in 100 μl deionized water. The cells were incubated for 15 min at 4° C. to allow cell lysis to occur and the cell debris was removed by centrifugation at 15000 g for 10 min at 4° C. 10 μl of each supernatant sample were used for the lactate determination.
as §2

[4] = test system: peripheral blood mononuclear cells (PBMC); experiment: T-lymphocyte proliferation, PMA/ionomycin stimulated PBMC, 3 days; settings: Homo sapiens, 72 h, read-out: pIA50 Proliferation (3 days) (converted)
Excerpt: The cell signalling pathways triggered by T-cell activation through the T cell receptor and CD28 can be mimicked in vitro using a phorbol ester, phorbol 12-myristate 13-acetate (PMA), which activates protein kinase C, and ionomycin, which induces calcium release from internal cellular stores. PMA and ionomycin-stimulated proliferation of peripheral blood mononuclear cells (PBMC), of which the predominant cell type is T-lymphocytes, provides a suitable assay for measuring the ability of small molecules to block T-cell proliferation.
Blood was centrifuged at 850 g for 10 minutes and the plasma was removed. […] The blood/Lymphoprep layers were centrifuged at 850 g for 20 minutes at 18° C. (with no brake).
10 μl of compound in solution was then added to the 96-well flat bottom assay plate (final volume of 200 μl). […] Both were diluted to 4× the final assay concentration in complete medium. 50 μl of each reagent was dispensed per well to give a final assay concentration of 0.5 ng/ml PMA and 500 ng/ml ionomycin. Control wells received 100 μl cells with PMA only (negative control 1), with ionomycin only (negative control 2) and 100 μl cells with 50 μl PMA and 50 μl ionomycin with no test compound (positive control). 100 μl complete medium was added to the negative controls. […]

[5] = test system: activated T-lymphocytes; experiment: DNA synthesis ([3H]-thymidine incorporation) in activated T-lymphocytes; type: cell-based; settings: Homo sapiens, T-lymphocyte; Mean±s.e.mean (mean±range for n=2); read-out: pIA50 DNA (converted)
Protocol: as §1
DNA synthesis was assessed by measuring the incorporation of [^3H]-thymidine. The assay was carried out in a 96-well plate. 20 μl of test compounds at 10× the final concentration were added to the plate followed by 200 μl of T-cells per well (2×10^5 cells). The cells were cultured for 4 h under standard cell culture conditions and cultures were pulsed with ^3H-thymidine (0.5 μCi/well; Amersham) for the final hour of the incubation.

[6] = target: T1, human MCT1 (Homo sapiens, UniProt P53985, D490E); experiment: Lactate uptake by change in intracellular pH (BCECF) in INS-1 cells expressing MCT; type: cell-based; settings: 100 nM, INS-1 cells expressing human MCT1, n=2
T1 sequence (P53985 1-500 D490E): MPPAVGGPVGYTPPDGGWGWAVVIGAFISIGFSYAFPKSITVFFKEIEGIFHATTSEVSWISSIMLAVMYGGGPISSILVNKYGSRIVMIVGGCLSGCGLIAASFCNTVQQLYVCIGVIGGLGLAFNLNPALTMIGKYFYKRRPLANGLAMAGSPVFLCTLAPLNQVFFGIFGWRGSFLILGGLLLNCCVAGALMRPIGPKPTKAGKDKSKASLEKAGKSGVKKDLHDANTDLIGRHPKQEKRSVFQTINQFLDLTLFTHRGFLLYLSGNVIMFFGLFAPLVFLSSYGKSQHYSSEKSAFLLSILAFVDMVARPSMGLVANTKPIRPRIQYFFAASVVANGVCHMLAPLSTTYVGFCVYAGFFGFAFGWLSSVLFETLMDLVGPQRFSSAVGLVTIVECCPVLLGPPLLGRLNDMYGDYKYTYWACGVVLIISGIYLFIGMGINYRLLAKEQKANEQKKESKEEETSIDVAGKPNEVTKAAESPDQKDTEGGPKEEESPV
T1 sequence (P26453 142-388 partner limits assumed): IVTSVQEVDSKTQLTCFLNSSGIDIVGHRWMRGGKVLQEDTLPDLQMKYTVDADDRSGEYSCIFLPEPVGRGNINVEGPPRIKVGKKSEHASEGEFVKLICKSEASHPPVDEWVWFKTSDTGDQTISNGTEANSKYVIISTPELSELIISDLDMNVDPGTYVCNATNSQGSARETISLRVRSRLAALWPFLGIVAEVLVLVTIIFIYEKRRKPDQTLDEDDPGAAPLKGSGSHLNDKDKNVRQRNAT
Excerpt: As lactate entry into cells is proton-linked, the addition of exogenous lactate to cells expressing functionally active MCT isoforms results in a significant decrease in intracellular pH. Lactate uptake by this method can be measured in cells endogenously expressing MCT isoforms (e.g., K562 and MDA-MB231 cells) or in cells transfected with cloned MCT isoforms (e.g., MCT1, 3 and 4) expressed in SF9 or INS-1 cells as follows. […] INS-1 cells were transfected with pcDNA3-hMCT1 using the Fugene™ 6 Transfection Reagent (Roche Molecular Biochemicals, Indianapolis, Ind., USA) to manufacturers instructions. Stably transfected cells were selected with 100 μg/ml Genetecin (Gibco Laboratories, Grand Island, N.Y.) to generate INS-1 MCT1 mixed populations, which were subsequently dilution cloned to generate INS-1 MCT1 clones. […]
Following BCECF labelling, 10 μl of the relevant cell suspension was added to each well of a 96 well plate (Biocat Poly-D-Lysine coated clear-bottomed black plates, Becton Dickinson) and 10 μl of inhibitor or vehicle control was added per well at 10× final concentration. […] The 96 well plate was then placed in the FLEXstation and fluorescence was measured using the following wavelengths:
The experiment was set up so that a reading at time zero was made, the lactate was added to the plate, and then readings were made every 3 seconds for 3 mins. […]

[7] = target: T2, MCT1 (Homo sapiens, UniProt P53985, D490E); experiment: MCT filter binding assay, yeast membranes, radioligand specific binding; design: made in house; host or cells: Saccharomyces cerevisiae BY4742 (jen1 deletion), membrane preparation; plasmid pACES14-hMCT1; settings: ~2.5 nM radioligand
T2 sequence (P53985 1-500 D490E): T1 sequence (P53985 1-500 D490E)
Protocol: (§3) For yeast cells transformed with expression plasmids containing the human MCT 1-4 ORFs the ability of membrane preparations to bind radioligand was determined using a single ligand concentration/multi protein concentration binding assay. This generated an estimate of the amount of active binding protein present in each membrane preparation. The ligand concentration used will give an estimate of Bmax that is approximately 90% of the true value. 10 μl of ligand A, B or C that had been diluted 50 fold with assay buffer (50 mM HEPES, 0.1 mM EDTA, 0.15 M NaCl, pH 7.5, 0.5% BSA) was dispensed into wells of a polypropylene microtitre plate. This gives a final radiolabelled ligand concentration of ˜2.5 nM. […] The membranes were diluted to give a known amount/180 μl assay buffer. This is typically in the […] range. For the membranes with high binding site number a more dilute membrane preparation should be added. 180 μl of each membrane solution was then added to each well and incubated at 2 hours at room temperature with shaking. The membranes were harvested onto GF-B filter plates and washed with assay buffer without BSA, dried, scintillant added and counts detected using the relevant program for each ligand on a Packard Top Count plate reader.

[8] = test system: MDA-MB-231 cell line; experiment: Filter binding of 3H-ligand C to MDA-MB-231 cells; design: species or system human; settings: untransfected MDA-MB-231
Protocol: The human breast cell line MDA-MB-231 had been previously identified as expressing low levels of MCT1 (Garcia et al., Cell. 76:865-873, 1994). The MDA-MB-231 cell line was grown. […] The cells were grown and transfected with pcDNA3-hMCT1. An increase in filter binding of ^3H-ligand C was consistently measured for transiently transfected cells when compared with control cells transfected with empty vector.

[9] = MCT filter binding assay, yeast membranes transformed with vector only; settings: ~2.5 nM radioligand
Protocol: as §3

[10] = target: T3, human MCT4 (Homo sapiens, UniProt O15427); experiment: MCT filter binding assay, yeast membranes, radioligand specific binding; settings: ~2.5 nM radioligand
T3 construct: from the full length copy and subcloned into the S. cerevisiae expression plasmid pACES14; made in house; host or cells: Saccharomyces cerevisiae BY4742 (jen1 deletion), membrane preparation; plasmid pACES14-hMCT4
T3 sequence (O15427 1-465): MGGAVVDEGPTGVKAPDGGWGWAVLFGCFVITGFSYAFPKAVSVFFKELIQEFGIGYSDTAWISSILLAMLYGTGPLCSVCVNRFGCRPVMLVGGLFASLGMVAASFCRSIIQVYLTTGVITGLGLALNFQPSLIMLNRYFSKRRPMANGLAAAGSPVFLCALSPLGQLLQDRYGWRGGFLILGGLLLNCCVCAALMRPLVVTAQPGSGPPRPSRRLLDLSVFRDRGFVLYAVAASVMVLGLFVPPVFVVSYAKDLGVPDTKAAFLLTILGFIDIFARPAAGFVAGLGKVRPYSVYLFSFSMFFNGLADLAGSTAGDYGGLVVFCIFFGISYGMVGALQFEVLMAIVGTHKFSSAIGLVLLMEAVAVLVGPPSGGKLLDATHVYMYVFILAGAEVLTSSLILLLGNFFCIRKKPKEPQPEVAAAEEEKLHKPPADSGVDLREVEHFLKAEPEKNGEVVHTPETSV
Protocol: as §3

[11] = target: T4, human MCT2 (Homo sapiens, UniProt O60669); experiment: as above; settings: ~2.5 nM radioligand
T4 construct: The full length open reading frame for human MCT2 was then subcloned into the S. cerevisiae expression plasmid, pACES14; made in house; host or cells: Saccharomyces cerevisiae BY4742 (jen1 deletion), membrane preparation; plasmid pACES14-hMCT2
T4 sequence (O60669 1-478): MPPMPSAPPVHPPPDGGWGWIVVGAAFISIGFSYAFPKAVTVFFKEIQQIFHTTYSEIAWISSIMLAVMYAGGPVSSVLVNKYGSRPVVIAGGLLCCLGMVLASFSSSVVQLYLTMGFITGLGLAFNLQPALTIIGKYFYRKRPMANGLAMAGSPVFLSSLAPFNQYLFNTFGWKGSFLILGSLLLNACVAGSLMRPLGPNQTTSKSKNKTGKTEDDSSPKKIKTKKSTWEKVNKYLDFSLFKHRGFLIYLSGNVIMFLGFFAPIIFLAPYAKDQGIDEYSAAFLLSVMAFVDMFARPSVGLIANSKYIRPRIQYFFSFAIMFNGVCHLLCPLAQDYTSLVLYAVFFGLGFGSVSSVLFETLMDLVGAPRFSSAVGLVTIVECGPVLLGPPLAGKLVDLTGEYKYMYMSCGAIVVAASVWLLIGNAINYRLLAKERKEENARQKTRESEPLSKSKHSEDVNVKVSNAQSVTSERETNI
Protocol: as §3

[12] = target: T5, human MCT3 (Homo sapiens, UniProt O95907); experiment: as above; settings: ~2.5 nM radioligand
T5 construct: the full length open reading frame of human MCT3 was subcloned into the S. cerevisiae expression plasmid pACES14; made in house; host or cells: Saccharomyces cerevisiae BY4742 (jen1 deletion), membrane preparation; plasmid pACES14-hMCT3
T5 sequence (O95907 1-504): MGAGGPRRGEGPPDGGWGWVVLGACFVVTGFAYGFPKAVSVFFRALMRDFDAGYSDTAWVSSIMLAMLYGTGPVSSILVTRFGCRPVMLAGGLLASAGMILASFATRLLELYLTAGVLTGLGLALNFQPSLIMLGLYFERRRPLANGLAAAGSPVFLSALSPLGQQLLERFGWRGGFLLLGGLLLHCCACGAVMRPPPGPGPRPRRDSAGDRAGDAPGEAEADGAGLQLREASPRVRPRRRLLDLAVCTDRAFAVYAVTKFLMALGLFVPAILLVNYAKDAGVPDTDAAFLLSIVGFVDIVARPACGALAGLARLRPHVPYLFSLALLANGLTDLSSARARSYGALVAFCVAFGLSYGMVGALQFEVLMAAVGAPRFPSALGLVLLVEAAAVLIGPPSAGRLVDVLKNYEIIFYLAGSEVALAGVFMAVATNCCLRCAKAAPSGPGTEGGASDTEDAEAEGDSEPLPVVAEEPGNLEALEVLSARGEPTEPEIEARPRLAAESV
Protocol: as §3

SMILES	pIC50 ([1]; Mus musculus, 8-mercaptoguanosine 100 μg/ml, partial inhibition, read-out: IA50, proliferative response to 8MG)	pIC50 ([1]; Mus musculus, LPS 50 μg/ml, partial inhibition, read-out: IA50, proliferative response to LPS)	pIC50 ([1]; goat anti mouse IgM 40 μg/ml, weak, read-out: IA50, proliferative response to goat anti-mouse IgM)	IC50 [2]	EC50 [3]	IC50 [4]	IC50 [5]	effect on decrease in intracellular pH on addition of exogenous lactate [6]	Specific binding (cpm) Average ([7]; MCT1 (2 ug))	Specific binding (cpm) Average ([7]; MCT1 (20 ug))	binding sites per cell [8]	Specific binding (cpm) Average ([9]; vector (2 ug))	Specific binding (cpm) Average ([9]; vector (20 ug))	Specific binding (cpm) Average ([10]; MCT4 (2 ug))	Specific binding (cpm) Average ([10]; MCT4 (20 ug))	Specific binding (cpm) Average ([11]; MCT2 (2 ug))	Specific binding (cpm) Average ([11]; MCT2 (20 ug))	Specific binding (cpm) Average ([12]; MCT3 (2 ug))	Specific binding (cpm) Average ([12]; MCT3 (20 ug))
CC(C)Cc1nn(C)c(=O)c2c(SCCCO)n(Cc3cccc4ccccc34)cc12 [Ligand 2, 2,6-dihydro-7-[(3-hydroxypropyl)thio]-2-methyl-4-(2-methylpropyl)-6-(1-napthanlenylmethyl)-1H-pyrrolo[3,4-d]pyridazin-1-one]	8.00	8.30	< 7.00	0.794 nM	0.55 nM	0.38 nM	1.35 nM	completely abolished											
[3H]CC([3H])(C[3H])Cn1c(=O)n(C)c(=O)c2c(SCCCO)n(Cc3cccc4ccccc34)cc21 [Ligand C, 5-[(3-Hydroxypropyl)thio]-1-([2,3,3′-^3H]isobutyl)-3-methyl-6-(1-naphthalenylmethyl)-1H-pyrrolo[3,4-d]pyrimidine-2,4(3H,6H)-dione]									3621 cpm	5553 cpm	~6000 binding sites per cell	0 cpm	0 cpm	81 cpm	0 cpm	593 cpm	213 cpm	0 cpm	40 cpm
